Measurements from patent US20080200477A1, “Retinoid-Containing Compositions Having Reduced Irritation Effect” (priority 2004, published 2008).

What was measured:
interleukin-8 (IL8) = test: Retinol-induced interleukin-8 release from reconstituted epidermis (ELISA on culture medium); assay type: cell-based, human; settings: for % reduction of IL8 release Control + retinol: measured after 48 hours and 96 hours (time not given)
Description: Samples of reconstituted epidermis were topically applied with gel/emulsions containing retinol (0.075 wt. %) and a series of test ingredients. The release of interleukin-8 (IL8) was measured in the culture medium after 48 hours by an ELISA method. No significant loss of viability was evidenced. No release of interleukin-1 (IL1) was observed.
Samples of reconstituted epidermis were topically applied with gel/emulsions containing retinol (0.075 wt. %) and one of the following test ingredients: Dragocalm® (at 1.5 wt. % and 3.5 wt. %), dipotassium glycyrrhenzinate (at 0.5 wt. %), Rona Care® ectoine (at 0.1 wt. %, 0.25 wt. %), and a willow herb (0.1 wt. %)/oat straw (0.1 wt. %) extract combination. The release of IL8 was measured in each culture medium after 48 hours and 96 hours by an ELISA method. No significant loss of viability was evidenced. No release of IL1 was observed.

[1] = system: retinol induced skin redness; test: Repeated patch test on backs of human volunteers, cumulated redness score; assay type: in vivo; settings: for inhibition of retinol-induced redness (in words): concentration not given, retinol 0.1 wt. %, human volunteers; for Score (cumulated redness score): 48 hours patches, three times a week during three weeks
Description: Based on the foregoing results, Dragocalm®, ectoine, and dipotassium glycyrrhenzinate were tested further on human volunteers for their potential to reduce retinol induced skin redness. Patches containing formulas comprising either retinol (0.1 wt. %) or retinol (0.1 wt. %) plus the test ingredient Dragocalm®, ectoine, or dipotassium glycyrrhenzinate were applied during 48 hours to the backs of volunteers three times a week during three weeks. Redness induced by the patches was examined and scored after each patch removal. Every individual score for each product were cumulated to give the final scores.

[2] = retinol 0.1 wt. % + test ingredient 0.25 wt. %
[3] = retinol 0.1 wt. % + test ingredient 0.5 wt. %

Compound: CC(C)=CCC[C@](C)(O)[C@@H]1CC=C(C)CC1 [Alpha Bisabolol, reference compound]
- % Reduction of Interleukin-8 compared with Control + Retinol (interleukin-8 (IL8); Example 1, test ingredient 0.05 wt. % in gel/emulsion with retinol 0.075 wt. %, 48 hours): −4%

Compound: CC1=NC(C(=O)O)CCN1 (centres unmarked) [Rona Care ® Ectoin, 1,4,5,6-tetrahydro-2-methyl-4-pyrimidine carboxylic acid]
- decrease of retinol induced IL8 release (interleukin-8 (IL8); Example 1, 1 wt. %, retinol 0.075 wt. %, 48 hours): 55%
- % Reduction of Interleukin-8 compared with Control + Retinol (interleukin-8 (IL8); Example 1, test ingredient 1 wt. % in gel/emulsion with retinol 0.075 wt. %, 48 hours): −55%
- activity on IL8 release (in words) (interleukin-8 (IL8); Example 2, 0.1 wt. %, retinol 0.075 wt. %): no activity
- reduction (inhibition) of IL8 release (interleukin-8 (IL8); Example 2, 0.25 wt. %, retinol 0.075 wt. %): 60%
- % reduction of IL8 release Control + retinol (interleukin-8 (IL8); Example 2, test ingredient 0.1 wt. %, retinol 0.075 wt. %): −31%
- % reduction of IL8 release Control + retinol (interleukin-8 (IL8); Example 2, test ingredient 0.25 wt. %, retinol 0.075 wt. %): −60%
- inhibition of retinol-induced redness (in words) [1]: reduced redness but to a lesser extent
- % reduction (of redness score vs Control + Retinol 0.1 wt. %) [1, 2]: −56%
- Score (cumulated redness score) [1, 2]: 9.5

Compound: CCCCCCCCCCCCCCCCCCOC(=O)[C@@]1(C)CC[C@]2(C)CC[C@]3(C)C(=CC(=O)[C@@H]4[C@@]5(C)CC[C@H](O)C(C)(C)[C@@H]5CC[C@]43C)[C@@H]2C1 [Stearyl Glycirrhezinate, reference compound]
- % Reduction of Interleukin-8 compared with Control + Retinol (interleukin-8 (IL8); Example 1, test ingredient 0.1 wt. % in gel/emulsion with retinol 0.075 wt. %, 48 hours): 26%

Compound: Dipotassium Glycirrhezinate [reference compound]
- % Reduction of Interleukin-8 compared with Control + Retinol (interleukin-8 (IL8); Example 1, test ingredient 0.2 wt. % in gel/emulsion with retinol 0.075 wt. %, 48 hours): −29%
- reduction (inhibition) of IL8 release (interleukin-8 (IL8); Example 2, 0.5 wt. %, retinol 0.075 wt. %): 63%
- % reduction of IL8 release Control + retinol (interleukin-8 (IL8); Example 2, test ingredient 0.5 wt. %, retinol 0.075 wt. %): −63%
- inhibition of retinol-induced redness (in words) [1]: not effective
- % reduction (of redness score vs Control + Retinol 0.1 wt. %) [1, 3]: −21%
- Score (cumulated redness score) [1, 3]: 17
